How the values were obtained:
GST-Xa-hAAK1 = molecular target: T1, GST-Xa-hAAK1 (Homo sapiens, UniProt Q2M2I8); test: AAK1 kinase assay; type: biochemical; conditions: ATP 22 μM
T1 construct: made in house
Protocol: The assays were performed in U-bottom 384-well plates. […] The reactions were initiated by the combination of bacterially expressed, GST-Xa-hAAK1 with substrates and test compounds. The reactions were incubated at room temperature for 3 hours and terminated by adding 60 μl of 35 mM EDTA buffer to each sample. The reactions were analyzed on the Caliper LabChip 3000 (Caliper, Hopkinton, Mass.) by electrophoretic separation of the fluorescent substrate and phosphorylated product. […] Compounds were dissolved at 10 mM in dimethylsulfoxide (DMSO) and evaluated at eleven concentrations. IC50 values were derived by non-linear regression analysis.

[1] = molecular target: T2, AAK1 (full length human) in HEK293F cells (Homo sapiens, UniProt Q2M2I8); test: HEK281 cell-based assay (phospho-mu2 Western blot in transfected HEK293F cells); conditions: 3 hours
T2 construct: fused on or other part: HA tag (AAK1/HA in pIRES vector)
Protocol: On day one, cells were plated on a 10 cm dish so that they are ˜80% confluent at time oftransfection. Roughly 12 million cells were in a 10 cm dish at time of transfection. […] The DNA was comprised of a mixture (per 10 cm dish) containing 3 ug AAK1/HA/pIRES (full length human, NCBI accession no. NP_055726.2), 45 μg Flag/AP2MI/pcDNA (full length human), and 1.5 ml OPTI-MEM. The Lipofectamine 2000 is made up of a mixture (per 10 cm dish) containing 144 μl Lipofectamine 2000 and 1.5 ml OPTI-MEM. Each mixture was transferred to individual 15 ml tubes and incubated at RT for 5 minutes, and then the two mixes were combined and incubated at RT for 20 minutes. Growth media was then aspirated from each 10 cm plate and replaced with 10 ml of DMEM+10% FBS (no GPS). Finally, 3 ml DNA/Lipofectamine mix was added to each 10 cm dish and mix gently followed by incubate of plate overnight at 37° C. and 5% CO2.
On day three, compounds were diluted in 100% DMSO at 1000× final concentration, followed by 3-fold serial dilutions for a total of 5 concentrations tested. Four compounds were tested per 10 cm dish. One ul of each compound dilution was then pipetted into a deep-well, 96-well plate, followed by addition of 500 μl DMEM+0.5% FBS into each well for a 2× final concentration of each compound. Cells were resuspended in a 10 cm dish by simple pipetting (HEK293 cells come off the plate that easy at this point) and then transferred to a 50 ml conical tube and pelleted by centrifugation at 1000 rpm for 5 min. Cell pellets were then resuspended in 2.75 ml DMEM+0.5% FBS per 10 cm dish and 100 μl of cell suspension transferred into each well of 96-well TC plate. Finally, 100 μl of 2× compound diluted in DMEM+0.5% FBS was then added into wells containing cell suspension for a 1× final concentration. Plates were then incubated at 37° C. and 5% CO2 for 3 hours followed by transferring of cell suspensions from each well into 12-tube PCR strips. The PCR strips were spun in a tip rack at 1000 rpm for 5 minutes to pellet cells and media was then removed by pipetting without disturbing the cell pellet.
Five ul of 10× NuPage Sample Reducing Agent (with 50 mM DTT) was to each sample followed by heat denaturing at 70 C for 10 min on PCR machine. […] For controls, 2 ng of phospho-mu2 or 20 ng mu2/Flag proteins were loaded in the last well of each gel. After SDS-PAGE, samples on each gel were transferred to PVDF membrane using an iBlot and membranes were blocked for one hour in TBST+5% milk, followed by wash 3× for 5-10 min with TBST.
Finally, the camera was set up to take a picture every 30 seconds for 10 minutes and the best image saved for each blot with no saturated signal (when the signal is saturated, the bands will be highlighted red). A volume analysis on each band was performed to obtain density values. Percent inhibition was calculated for each sample by first normalizing to total Mu2 expression levels and then comparing to 0% and 100% controls. IC50 values were then calculated using Excel fitting software.

[2] = phospho-mu2, given as IC50 range

T2 sequence (Q2M2I8 1-822 limits assumed): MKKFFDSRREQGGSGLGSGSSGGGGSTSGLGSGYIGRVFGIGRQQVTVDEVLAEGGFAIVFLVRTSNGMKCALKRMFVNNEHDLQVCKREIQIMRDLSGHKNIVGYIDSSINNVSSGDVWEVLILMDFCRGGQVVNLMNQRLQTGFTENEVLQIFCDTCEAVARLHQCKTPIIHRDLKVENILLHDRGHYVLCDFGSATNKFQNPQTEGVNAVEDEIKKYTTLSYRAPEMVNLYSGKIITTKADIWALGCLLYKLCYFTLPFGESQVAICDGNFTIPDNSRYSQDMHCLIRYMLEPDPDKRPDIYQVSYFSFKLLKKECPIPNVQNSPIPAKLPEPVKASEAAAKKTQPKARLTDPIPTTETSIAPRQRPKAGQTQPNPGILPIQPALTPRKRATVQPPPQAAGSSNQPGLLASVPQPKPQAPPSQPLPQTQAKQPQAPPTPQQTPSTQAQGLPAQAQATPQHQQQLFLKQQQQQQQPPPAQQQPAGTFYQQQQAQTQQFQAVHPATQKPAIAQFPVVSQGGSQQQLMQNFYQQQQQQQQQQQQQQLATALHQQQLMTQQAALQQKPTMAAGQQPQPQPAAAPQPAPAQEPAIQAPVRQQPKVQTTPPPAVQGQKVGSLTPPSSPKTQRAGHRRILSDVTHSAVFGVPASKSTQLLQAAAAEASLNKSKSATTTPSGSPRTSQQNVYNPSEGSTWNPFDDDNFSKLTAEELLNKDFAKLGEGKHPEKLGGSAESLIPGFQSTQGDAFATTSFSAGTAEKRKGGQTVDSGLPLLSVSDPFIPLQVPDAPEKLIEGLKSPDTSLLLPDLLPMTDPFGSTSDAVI
T1 sequence (Q2M2I8 whole entry): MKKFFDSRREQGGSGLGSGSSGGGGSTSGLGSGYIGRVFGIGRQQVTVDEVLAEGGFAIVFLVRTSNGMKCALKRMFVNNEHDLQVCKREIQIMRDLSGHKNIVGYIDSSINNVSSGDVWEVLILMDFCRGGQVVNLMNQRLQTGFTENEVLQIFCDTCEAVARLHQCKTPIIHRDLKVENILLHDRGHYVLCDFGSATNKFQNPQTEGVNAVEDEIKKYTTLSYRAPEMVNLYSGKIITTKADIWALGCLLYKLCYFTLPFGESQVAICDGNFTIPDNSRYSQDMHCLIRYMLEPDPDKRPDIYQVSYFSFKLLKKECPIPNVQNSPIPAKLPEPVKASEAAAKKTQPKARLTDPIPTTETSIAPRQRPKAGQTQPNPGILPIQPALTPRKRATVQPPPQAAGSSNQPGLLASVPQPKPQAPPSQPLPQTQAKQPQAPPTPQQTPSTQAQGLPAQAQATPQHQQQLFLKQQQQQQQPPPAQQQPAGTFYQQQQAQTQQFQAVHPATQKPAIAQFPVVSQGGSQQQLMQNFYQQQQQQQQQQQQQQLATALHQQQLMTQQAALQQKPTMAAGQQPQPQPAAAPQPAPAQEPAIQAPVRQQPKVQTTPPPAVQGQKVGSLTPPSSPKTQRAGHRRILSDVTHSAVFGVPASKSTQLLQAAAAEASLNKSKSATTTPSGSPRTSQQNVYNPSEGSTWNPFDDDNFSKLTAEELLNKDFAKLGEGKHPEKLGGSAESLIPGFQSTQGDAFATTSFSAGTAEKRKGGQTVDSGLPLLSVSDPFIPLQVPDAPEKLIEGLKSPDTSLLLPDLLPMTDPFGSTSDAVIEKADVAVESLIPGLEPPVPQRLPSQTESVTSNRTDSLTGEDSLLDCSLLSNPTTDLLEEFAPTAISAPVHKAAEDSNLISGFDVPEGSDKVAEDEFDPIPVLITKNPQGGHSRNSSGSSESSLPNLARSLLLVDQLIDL

Row | IC50 (GST-Xa-hAAK1; given as IC50 range) [nM] | IC50 [1, 2] [nM] | IC50 (GST-Xa-hAAK1; 3 hours at room temperature) [nM] | IC50 ([1]; phospho-mu2 normalized to total Mu2) [nM] | Compound
1 | 10 to 100 | 10 to 100 |  |  | Cc1nccc2c1c(=O)n(C)c1cc(OC[C@@H](N)CC(C)C)c(-c3ccccn3)cc21 [Example 86, (S)-8-((2-amino-4-methylpentyl)oxy)-4,6-dimethyl-9-(pyridin-2-yl)benzo[c][2,7]naphthyridin-5(6H)-one]
2 | 1 to 10 | 1 to 10 |  |  | CC(C)C[C@H](N)COc1cc2[nH]c(=O)c3cnccc3c2cc1Br [Example 108, (S)-8-((2-amino-4-methylpentyl)oxy)-9-bromobenzo[c][2,7]naphthyridin-5(6H)-one]
3 | 1 to 10 | 1 to 10 |  |  | Cc1cc2c(cc1OC[C@@H](N)CC(C)C)[nH]c(=O)c1cnccc12 [Example 109, (S)-8-((2-amino-4-methylpentyl)oxy)-9-methylbenzo[c][2,7]naphthyridin-5(6H)-one]
4 | 1 to 10 | 1 to 10 |  |  | Cn1c(=O)c2cnccc2c2cc(Br)c(OCC(N)CCC(F)(F)F)cc21 (stereo not shown) [Example 113, 8-((2-amino-5,5,5-trifluoropentyl)oxy)-9-bromo-6-methylbenzo[c][2,7]naphthyridin-5(6H)-one]
5 | 1 to 10 | 10 to 100 |  |  | Cn1c(=O)c2cnccc2c2cc(-c3cnco3)c(OCC(N)CCC(F)(F)F)cc21 (stereo not shown) [Example 114, 8-((2-amino-5,5,5-trifluoropentyl)oxy)-6-methyl-9-(oxazol-5-yl)benzo[c][2,7]naphthyridin-5(6H)-one]
6 | 1 to 10 | 1 to 10 |  |  | Cn1c(=O)c2cnccc2c2cc(Cl)c(OCC(N)CCC(F)(F)F)cc21 (stereo not shown) [Example 115, 8-((2-amino-5,5,5-trifluoropentyl)oxy)-9-chloro-6-methylbenzo[c][2,7]naphthyridin-5(6H)-one]
7 | 10 to 100 | 10 to 100 |  |  | Cn1c(=O)c2cnccc2c2cc(Cl)c(OCC(N)CCC(F)(F)F)cc21 (stereo not shown) [Example 116, 8-((2-amino-5,5,5-trifluoropentyl)oxy)-9-chloro-6-methylbenzo[c][2,7]naphthyridin-5(6H)-one]
8 | 1 to 10 | 1 to 10 |  |  | Cn1c(=O)c2cnccc2c2cc(Cl)c(OCC(N)CCC(F)(F)F)cc21 (stereo not shown) [Example 117, 8-((2-amino-5,5,5-trifluoropentyl)oxy)-9-chloro-6-methylbenzo[c][2,7]naphthyridin-5(6H)-one]
9 | 1 to 10 | 10 to 100 |  |  | Cn1c(=O)c2c(N)nccc2c2ccc(OCC(N)CCC(F)(F)F)cc21 (stereo not shown) [Example 118, 4-amino-8-((2-amino-5,5,5-trifluoropentyl)oxy)-6-methylbenzo[c][2,7]naphthyridin-5(6H)-one]
10 |  | 1 to 10 |  |  | Cn1c(=O)c2c(N)nccc2c2ccc(OCC(N)CCC(F)(F)F)cc21 (stereo not shown) [Example 119, 4-amino-8-((2-amino-5,5,5-trifluoropentyl)oxy)-6-methylbenzo[c][2,7]naphthyridin-5(6H)-one]
11 |  | 1 to 10 |  |  | Cn1c(=O)c2c(N)nccc2c2ccc(OCC(N)CCC(F)(F)F)cc21 (stereo not shown) [Example 120, 4-amino-8-((2-amino-5,5,5-trifluropentyl)oxy)-6-methylbenzo[c][2,7]naphthyridin-5(6H)-one]
12 | 1 to 10 | 1 to 10 |  |  | CC(C)C[C@H](N)COc1cc2c(cc1C(F)F)c1ccncc1c(=O)n2C [Example 121, (S)-8-((2-amino-4-methylpentyl)oxy)-9-(difluoromethyl)-6-methylbenzo[c][2,7]naphthyridin-5(6H)-one]
13 | 1 to 10 | 1 to 10 |  |  | Cc1nccc2c1c(=O)n(C)c1cc(OC[C@@H](N)CC(C)C)c(Br)cc21 [Example 122, (S)-8-((2-amino-4-methylpentyl)oxy)-9-bromo-4,6-dimethylbenzo[c][2,7]naphthyridin-5(6H)-one]
14 |  |  | 16 | 56 | Cn1c(=O)c2cnccc2c2cc(C#N)c(OCC(N)CCC(F)(F)F)cc21 (stereo not shown) [Example 126, 8-((2-amino-5,5,5-trifluoropentyl)oxy)-6-methyl-5-oxo-5,6-dihydrobenzo[c][2,7]naphthyridine-9-carbonitrile]
15 | 1 to 10 | 1 to 10 |  |  | Cc1nccc2c1c(=O)n(C)c1cc(OC[C@@H](N)CC(C)C)c(C(C)C)cc21 [Example 129, (S)-8-((2-amino-4-methylpentyl)oxy)-9-isopropyl-4,6-dimethylbenzo[c][2,7]naphthyridin-5(6H)-one]
16 |  |  | 1330 |  | Cc1nccc2c1c(=O)n(C)c1cc(OCC(O)CNC(C)C)ccc21 (stereo not shown) [Example 147, 8-(2-hydroxy-3-(isopropylamino)propoxy)-4,6-dimethylbenzo[c][2,7]naphthyridin-5(6H)-one]
17 | 10 to 100 |  |  |  | Cc1nccc2c1c(=O)n(C)c1cc(OCC(O)CNC(C)C)c(Br)cc21 (stereo not shown) [Example 149, 9-bromo-8-(2-hydroxy-3-(isopropylamino)propoxy)-4,6-dimethylbenzo[c][2,7]naphthyridin-5(6H)-one]
18 | 10 to 100 |  |  |  | CC(C)CC(C)COc1ccc2c3ccncc3c(=O)n(C)c2c1 (stereo not shown) [Example 150, 8-((2,4-dimethylpentyl)oxy)-6-methylbenzo[c][2,7]naphthyridin-5(6H)-one]
19 | 10 to 100 |  |  |  | CC(C)CCCOc1ccc2c3ccncc3c(=O)n(C)c2c1 [Example 151, 6-methyl-8-((4-methylpentyl)oxy)benzo[c][2,7]naphthyridin-5(6H)-one]
20 | 10 to 100 |  |  |  | Cc1nccc2c1c(=O)n(C)c1cc(OC[C@@H](O)CC(C)C)ccc21 [Example 152, (S)-8-((2-hydroxy-4-methylpentyl)oxy)-4,6-dimethylbenzo[c][2,7]naphthyridin-5(6H)-one]
21 | 100 to 2000 |  |  |  | Cc1nccc2c1c(=O)n(C)c1cc(OCC(O)COC(C)C)ccc21 (stereo not shown) [Example 153, 8-(2-hydroxy-3-isopropoxypropoxy)-4,6-dimethylbenzo[c][2,7]naphthyridin-5(6H)-one]
22 | 10 to 100 |  |  |  | CC(C)CC(C)COc1cc2c(cc1Br)c1ccncc1c(=O)n2C (stereo not shown) [Example 154, 9-bromo-8-((2,4-dimethylpentyl)oxy)-6-methylbenzo[c][2,7]naphthyridin-5(6H)-one]
23 | 100 to 2000 |  |  |  | Cc1nccc2c1c(=O)n(C)c1cc(OCC(C)CC(C)C)ccc21 (stereo not shown) [Example 155, 8-((2,4-dimethylpentyl)oxy)-4,6-dimethylbenzo[c][2,7]naphthyridin-5(6H)-one]
24 | 10 to 100 |  |  |  | Cc1nccc2c1c(=O)n(C)c1cc(OCCCC(C)C)ccc21 [Example 156, 4,6-dimethyl-8-((4-methylpentyl)oxy)benzo[c][2,7]naphthyridin-5(6H)-one]
25 | 10 to 100 |  |  |  | CC(C)CC(C)COc1ccc2c3ccncc3c(=O)n(C)c2c1 (stereo not shown) [Example 157, 8-((2,4-dimethylpentyl)oxy)-6-methylbenzo[c][2,7]naphthyridin-5(6H)-one]
26 | 10 to 100 |  |  |  | CC(C)CC(C)COc1ccc2c3ccncc3c(=O)n(C)c2c1 (stereo not shown) [Example 158, 8-((2,4-dimethylpentyl)oxy)-6-methylbenzo[c][2,7]naphthyridin-5(6H)-one]

Row | Compound | IC50 (GST-Xa-hAAK1; given as IC50 range) [nM] | IC50 [1, 2] [nM] | IC50 (GST-Xa-hAAK1; 3 hours at room temperature) [nM] | IC50 ([1]; phospho-mu2 normalized to total Mu2) [nM]
27 | Cc1nccc2c1c(=O)n(C)c1cc(OCC(N)CC(F)(F)F)c(Br)cc21 (single isomer, unassigned) [Example 138, 8-(2-amino-4,4,4-trifluorobutoxy)-9-bromo-4,6-dimethylbenzo[c][2,7]naphthyridin-5(6H)-one] | 1 to 10 | 10 to 100 |  | 
28 | Cc1nccc2c1c(=O)n(C)c1cc(OCC(N)CC(F)(F)F)c(Br)cc21 (single isomer, unassigned) [Example 139, 8-(2-amino-4,4,4-trifluorobutoxy)-9-bromo-4,6-dimethylbenzo[c][2,7]naphthyridin-5(6H)-one] | < 1 | 1 to 10 |  | 

From US20160333006A1, “ARYL LACTA KINASE INHIBITORS” (Bristol-Myers Squibb Company, priority 2014, published 2016)
